Data taken from PMC7804859, “A metabolically stable apelin-17 analog decreases AVP-induced antidiuresis and improves hyponatremia” (Nature Communications, 2021).
Several values for one entry are separate records, joined by “and”; a condition that tells them apart may be missing. Equal values may be shown once.

Legend:
[1] = target: anti-K17F serum; test: Inhibition of [125I]-pE13F binding to anti-K17F serum (apelin RIA, cross-reactivity); parameters: species or system rabbit; settings: read-out: IC50, recognition by antibody directed against K17F, antiserum 1/4500
Procedure: (§1) The columns were then treated as described in
(§2) Samples (0.1ml) w ere mixed with 125I-
(§3) 212 used this radioligand instead of [Glp65, Nle75, Tyr77] [125I]-apelin13 since the substitution of
(§4) 214 derivatives as described previously by 3,4.
(§5) 216 incubated for 10 min at room temperature.
This antiserum identified the apelin present in the
Most of the apelin in human plasma was […]

[2] = Brain apelin-immunoreactive levels in rats (RIA); format: in vivo, rat
Procedure: 187 Apelin radioimmunoassay
189 until use for apelin RIA.
The supernatants were collected and
The samples were dried and dissolved in
201 centrifuged (17000 x g, 4°C, 20 min). The supernatant (4 ml) was collected, and mixed with
as §1, §2, §3, §4, §5

[3] = tested on: phosphorylated AQP-2 in mpkCCD cells; test: dDAVP-induced phosphorylation of AQP-2 in mpkCCD cells (immunofluorescence); format: cell-based, mouse; settings: 10 µmol/l compound with 10 nmol/l dDAVP, 1 h
Procedure: mpkCCD cells were seeded in 12 mm Transwell filters of 0.4 μm pore size at a density of 160,000 cells/cm^2 and were grown for 5 days. Twenty-four hours before the experiment, cells were starved with depletion media (1:1 (vol/vol) Ham’s F12:DMEM medium). […] The cell culture medium was removed and cells were fixed with 4% formaldehyde in 1× PBS for 10 min at 4 °C, and permeabilized with 0.5% PBS Triton X-100 for 5 min at 20 °C. Then, inserts were incubated in 5% PBS-BSA for 60 min at 20 °C to block non-specific protein binding. Inserts were subjected to immunostaining with a rabbit anti-AQP-2-pS269 antibody (dilution, 1/200, Phospho Solution, Cliniscience, France) and a mouse monoclonal anti-occludin antibody (dilution, 1/200, Santa Cruz, Cliniscience, France) for 16 h at 4 °C. Inserts were then incubated with goat anti-rabbit Alexa Fluor Plus 647 or goat anti-mouse Alexa Fluor plus 488 secondary antibodies (dilution, 1/500, Invitrogen) for 60 min at 20 °C. […] Slides were analyzed in the x–y and x–z axes under a ×63/1.4 Oil WD: 0.17 mm objective with a Zeiss Axioobserver Z1 inverted spinning-disk microscope equipped with a camera sCMOS Hamamatsu 2048 × 2048/pixel size: 6.45 × 6.45 µm^2 and the lasers (405 nm; 100 mW, 491 nm; 150 mW and 642 nm; 100 mW). […]

[4] = Plasma LIT01-196 levels by mass spectrometry after i.v. injection in mice; format: in vivo, mouse; settings: for Apelin (plasma LIT01-196 concentration by mass spectrometry): 300 nmol/kg IV
Description: The detection limit was 6
The within- and between-assay
229 coefficients of variation were 3 and 5%, respectively6. The recovery (mean±SEM) was
233 the elimination rate constant.
236 animals per time point).
242 and 0.05% formic acid; solvent B: acetonitrile). Plasma samples were processed before RP-
244 acetonitrile for protein precipitation and compound extraction. Samples were vortex-stirred
248 standard and compared to standard curves. Standard curves were obtained by analyzing
250 using the same procedure. Pharmacokinetics parameters were calculated using a one-
Peptide injection and blood sample collection were performed by […]

[5] = tested on: control Sprague-Dawley rats; test: Effects of i.v. administration on urine output, urine osmolality and water intake in normonatremic rats; format: in vivo, rat
Procedure: Male Swiss mice (25–30 g, 4–6 weeks) and male Sprague–Dawley rats (210–230 g, 6–8 weeks) were obtained from Charles River Laboratories (L’Arbresle, France). While housed in our animal facility, they were given free access to normal chow and water, and they were maintained under 12-h light/dark cycles throughout the study. Temperature was maintained between 18 and 22 °C, and humidity between 40 and 60%. When required for i.v. administration, a right femoral venous catheter was implanted in the rats, by tunneling under the skin, under isoflurane anesthesia (4% for induction, 2% for maintenance). Meloxicam (Metacam) was administered postoperatively (1 mg/kg s.c.) for analgesia.

[6] = target: T1, rat apelin-R-EGFP (Rattus norvegicus, UniProt Q9JHG3); test: Inhibition of forskolin-induced cAMP production in CHO cells stably expressing rat apelin-R-EGFP (HTRF); format: cell-based; settings: 5 µmol/l forskolin, 30 min 20 °C
T1 construct: expressed in transfected cells
T1 sequence (Q9JHG3 1-377): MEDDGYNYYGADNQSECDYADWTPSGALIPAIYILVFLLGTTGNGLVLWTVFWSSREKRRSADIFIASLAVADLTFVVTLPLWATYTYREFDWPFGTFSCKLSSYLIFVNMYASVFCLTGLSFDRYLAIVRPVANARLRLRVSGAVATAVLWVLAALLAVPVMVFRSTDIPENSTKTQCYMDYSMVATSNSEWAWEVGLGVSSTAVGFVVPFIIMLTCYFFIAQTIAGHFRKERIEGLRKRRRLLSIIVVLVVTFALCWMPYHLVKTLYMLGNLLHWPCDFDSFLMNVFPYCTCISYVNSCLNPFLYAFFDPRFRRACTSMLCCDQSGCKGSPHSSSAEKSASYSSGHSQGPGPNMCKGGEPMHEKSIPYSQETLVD
Procedure: (§6) 152 Supplementary Methods
(§7) 154 We quantified cAMP production with the cAMP dynamic 2 assay kit (Cisbio Bioassays,
(§8) 155 Codolet, France), which is based on homogeneous time-resolved fluorescence (HTRF)
(§9) 156 technology, as previously described 1. For cells expressing the Apelin-R, 2000 CHO cells/well
(§10) 157 stably expressing rat apelinR-EGFP (clone B70) were added to the 384-well plate and
158 stimulated with 5 µmol/l forskolin (FSK) and various concentrations (0.01 pmol/l to 100 […]
(§11) Cells were then lysed, and
(§12) 165 cAMP levels were determined in accordance with the kit manufacturer’s instructions.
(§13) 166 Stimulation was performed in stimulation buffer-IBMX (SBI) (Hank’s balanced salt solution
(§14) 167 (HBSS-Life Technology), 5 mmol/l Hepes, 0.1% BSA stabilizer (Perkin Elmer), 1 mmol/l
168 isobutylmethylxanthine (IBMX, Sigma Aldrich, pH 7.4)). […]

[7] = tested on: normonatremic Sprague-Dawley rats; test: Blood and urine chemistry after 4 days of s.c. administration in rats; format: in vivo, rat; parameters: Plasma glucose: unit not given beside the values; Blood urea nitrogen / 24h Urine glucose: unit not given here
Procedure: Fractional excretion of water (in %) was calculated using the following formula: (plasma creatinine/urine creatinine) × 100. Fractional excretion of sodium (in %) was calculated using the following formula: (plasma creatinine × urine sodium/urine creatinine × plasma sodium) × 100. Blood and urine creatinine, urea nitrogen, and glucose levels were determined using an AU5800 Beckman Coulter chemistry analyzer (Beckman Coulter, Villepinte, France).

[8] = tested on: kidneys of normonatremic Sprague-Dawley rats; test: Kidney histology after 4 days of s.c. administration in rats; format: in vivo, rat; parameters: Tubular injury score: scale not given here
Procedure: 278 Kidneys were fixed in paraformaldehyde 4% overnight and processed for paraffin embedding.
279 Sections of 4 μm thickness were made and stained with the periodic acid-Schiff (PAS)
280 reagent and counterstained with hematoxylin. Histological analyzes were performed by a
281 trained nephrologist (AF), blinded of the treatment group. Tubular injury score was scored
283 vacuolization, epithelial cell shedding, and denuded tubular basement membrane, as follows:
285 calculated from twenty viewing fields selected randomly from the outer medulla and
286 corticomedullary junction and were examined at ×400 magnification. […]

[9] = tested on: mpkCCD cells; test: dDAVP-induced cAMP production in mpkCCD cells; format: cell-based, mouse; settings: 10 µmol/l compound, 10 nmol/l dDAVP, 60 min 37 °C
Procedure: as §6, §7, §8, §9, §10
158 stimulated with 5 µmol/l forskolin (FSK) and various concentrations (0.01 pmol/l to 100
For cells expressing the V2-R, HEK-
160 293T cells were transiently transfected with the human V2-R (cDNA Resource Center), after
161 48h, 4000 cells/well were added to white 384-well optiplates and stimulated either with 5
as §11, §12, §13, §14
168 isobutylmethylxanthine (IBMX, Sigma Aldrich, pH 7.4)). For cAMP assay with mpkCCD
169 cells, the cells were grown on 12 mm Transwell filters (0.4 μm pore size, Corning Costar,
170 Cambridge, MA) until they reach confluency (4-5 days). For forskolin experiments, culture
171 media was replaced with SBI in apical and basolateral compartments. After 30 min of […]

[10] = 15 nmol/kg i.v., control rats, 24 h, n = 6

## CSCC[C@H](NC(=O)[C@@H]1CCCN1C(=O)CNC(=O)[C@H](CCCCN)NC(=O)[C@H](Cc1c[nH]cn1)NC(=O)[C@H](CO)NC(=O)[C@H](CC(C)C)NC(=O)[C@H](CCCNC(=N)N)NC(=O)[C@@H]1CCCN1C(=O)[C@H](CCCNC(=N)N)NC(=O)[C@H](CCC(N)=O)NC(=O)[C@H](CCCNC(=N)N)NC(=O)[C@H](CCCNC(=N)N)NC(=O)[C@H](Cc1ccccc1)NC(=O)[C@H](CCCCN)NC(=O)CCC(F)(F)C(F)(F)C(F)(F)C(F)(F)C(F)(F)C(F)(F)C(F)(F)C(F)(F)F)C(=O)N1CCC[C@H]1C(=O)N[C@@H](Cc1ccccc1)C(=O)O [LIT01-196]
[1]
  IC50: 0.56 ± 0.04 nM
[2]; rats and mice, 30 min after s.c. 900 nmol/kg
  crossing of the blood-brain barrier: does not cross the BBB and does not enter the brain
[2]; rats, 30 min after 900 nmol/kg SC, single animals
  Brain apelin: 1.581 and 0.931 and 1.563 and 1.024 and 1.473
[2]; rats, 30 min after s.c. 900 nmol/kg, saline 1.2 ± 0.15, n = 5
  apelin-IR levels in the brain: 1.3 ± 0.14 pmol/brain
[3]
  phosphorylation of AQP-2 (phospho-AQP-2 immunolabelling): decrease in the phosphorylation of AQP-2
[4]; temps.min 5, single animals
  Apelin (plasma LIT01-196 concentration by mass spectrometry): 774.627 and 804.594 and 622.343
[4]; temps.min 15, single animals
  Apelin (plasma LIT01-196 concentration by mass spectrometry): 548.524 and 627.056 and 820.177
[4]; temps.min 28, single animals
  Apelin (plasma LIT01-196 concentration by mass spectrometry): 266.538 and 138.326 and 371.965
[4]; temps.min 60, single animals
  Apelin (plasma LIT01-196 concentration by mass spectrometry): 64.4359 and 230.369 and 324.336
[4]; CD-1, mouse, in vivo, iv, 300 nmol/kg i.v., UHPLC-MS/MS, one-compartment model, 3 animals per time point
  half-life: 29 min
[5]; [10]
  decrease in urine osmolality relative to saline: 38%
  increase in urine output relative to saline: 95%
[5]; i.v., K17F 400 nmol/kg, LIT01-196 15 nmol/kg, 24 hours
  water intake: did not induce a significant change
[6]
  IC50: 1.7 ± 0.5 nM
[7]; 900 nmol/kg SC, individual animals (Fig. S5G source data)
  Plasma creatinine: 21 and 24 and 22
[7]; 900 nmol/kg SC, individual animals (Fig. S5H source data)
  Blood urea nitrogen: 7 and 8 and 5.6 and 6.8 and 6.1
[7]; 900 nmol/kg SC, individual animals (Fig. S5J source data)
  Plasma potassium: 4.54 and 4.76 and 5.03 and 4.26 and 4.35
[7]; 900 nmol/kg SC, individual animals (Fig. S5K source data)
  Plasma glucose: 8.1 and 9.1 and 7.4 and 8 and 7.6
[7]; 900 nmol/kg SC, individual animals (Fig. S5L source data)
  24h Urine glucose: 0.04364 and 0.0331 and 0.0123 and 0
[7]; 900 nmol/kg s.c. for 4 days, rats
  blood creatinine, urea nitrogen, sodium, and potassium levels: not changed
[7]; repeated 900 nmol/kg s.c., normonatremic rats
  plasma or urine glucose levels: not associated with a change
[8]; 900 nmol/kg SC, individual animals (Fig. S5C source data)
  Tubular injury score: 0.105 and 0.1 and 0.05 and 0.15 and 0
[8]; 900 nmol/kg SC, individual animals (Fig. S5D source data)
  Glomerular injury score: 0.09091 and 0.1053 and 0.1429 and 0.04762 and 0.05
[8]; 900 nmol/kg s.c. for 4 consecutive days, rats
  histological analysis of the kidneys: did not reveal any abnormality
[9]
  inhibition of dDAVP-induced cAMP production: 79%
